According to patent US10513731B2, “Modified nucleotides” (Illumina Cambridge Limited, priority 2002, dated 2019):

Legend:
[1] = target: T1, polymerase (Thermococcus sp. 9° N exo −Y409V A485L) (Thermococcus sp., UniProt Q56366, A485L/D141A/E143A/Y409V); assay: Multiple cycles of incorporation, deblocking and capping on hairpin DNA attached to streptavidin beads, analysed by gel; format: biochemical; conditions: 2 μM FFN, 100 nM polymerase, 65° C. 10-15 minutes; deblocking with TCEP 0.1M, 65° C. 15 minutes
T1 construct: purchased New England Biolabs
Experimental: By attaching a hairpin DNA (covalently attached self complementary primer/template) to a streptavidin bead The reaction can be performed over multiple cycles as shown in FIGS. 5 and 6.
Remove the storage buffer and wash the beads 3 times with TE buffer (Tris-HCl pH 8, 10 mM and EDTA, 1 mM). Resuspend in B & W buffer (10 mM Tris-HCl pH 7.5, 1 mM EDTA and 2.0 M NaCl), add biotinylated ^32P labelled hairpin DNA with appropriate overhanging template sequence. Allow to stand at room temperature for 15 minutes. Remove buffer and wash beads 3 times TE buffer.
To a solution of Tris-HCl pH 8.8 50 mM, Tween-20 0.01%, MgSO4 4 mM, MnCl2 0.4 mM (except cycle 1, 0.2 mM), add 2 μM FFN and 100 nM polymerase. This solution is then added to the beads and mixed thoroughly and incubated at 65° C. for 10-15 minutes. The reaction mixture is removed and the beads washed 3 times with TE buffer.
Tris-(2-carboxyethyl)phosphines trisodium salt (TCEP) (0.1M) is added to the beads and mixed thoroughly. The mixture was then incubated at 65° C. for 15 minutes. The deblocking solution is removed and the beads washed 3 times with TE buffer. […]
The reaction products can be analysed by placing the bead solution in the well of a standard 12% polyacrylamide DNA sequencing gel in 40% formamide loading buffer. […]

[2] = tested on: DNA polymerase; conditions: eight termination assays, each with a different DNA polymerase; cited from earlier work
[3] = target: T1, polymerase (Thermococcus sp. 9° N exo −Y409V A485L); assay: Enzyme incorporation of 3′-blocked dNTPs on a P32-labelled DNA primer/template, followed by a chase with native nucleoside triphosphates; format: biochemical
Experimental: To a 100 nM DNA primer/template (primer previously labelled with P32 and T4 polynucleotide kinase) in Tris-HCl pH 8.8 50 mM, Tween-20 0.01%, and MgSO4 4 mM, add 2 μM compound 6 and 100 nM polymerase (Thermococcus sp. 9° N exo ^−Y409V A485L supplied by New England Biolabs). The template consists of a run of 10 adenine bases to show the effect of the block. The reaction is heated to 65 C for 10 mins. To show complete blocking, a chase is performed with the four native, unblocked nucleoside triphosphates.
To a 100 nM DNA primer/template (primer previously labelled with P32 and T4 polynucleotide kinase) in Tris-HCl pH 8.8 50 mM, Tween-20 0.01%, and MgSO4 4 mM, add 2 μM compound 38 and 100 nM polymerase (Thermococcus sp. 9° N exo ^−Y409V A485L supplied by New England Biolabs). The template consists of a run of 10 adenine bases to show the effect of the block. The reaction is heated to 65 C for 10 mins. To show complete blocking, a chase is performed with the four native, unblocked nucleoside triphosphates.

T1 sequence (Q56366 whole entry D141A/E143A/Y409V/A485L): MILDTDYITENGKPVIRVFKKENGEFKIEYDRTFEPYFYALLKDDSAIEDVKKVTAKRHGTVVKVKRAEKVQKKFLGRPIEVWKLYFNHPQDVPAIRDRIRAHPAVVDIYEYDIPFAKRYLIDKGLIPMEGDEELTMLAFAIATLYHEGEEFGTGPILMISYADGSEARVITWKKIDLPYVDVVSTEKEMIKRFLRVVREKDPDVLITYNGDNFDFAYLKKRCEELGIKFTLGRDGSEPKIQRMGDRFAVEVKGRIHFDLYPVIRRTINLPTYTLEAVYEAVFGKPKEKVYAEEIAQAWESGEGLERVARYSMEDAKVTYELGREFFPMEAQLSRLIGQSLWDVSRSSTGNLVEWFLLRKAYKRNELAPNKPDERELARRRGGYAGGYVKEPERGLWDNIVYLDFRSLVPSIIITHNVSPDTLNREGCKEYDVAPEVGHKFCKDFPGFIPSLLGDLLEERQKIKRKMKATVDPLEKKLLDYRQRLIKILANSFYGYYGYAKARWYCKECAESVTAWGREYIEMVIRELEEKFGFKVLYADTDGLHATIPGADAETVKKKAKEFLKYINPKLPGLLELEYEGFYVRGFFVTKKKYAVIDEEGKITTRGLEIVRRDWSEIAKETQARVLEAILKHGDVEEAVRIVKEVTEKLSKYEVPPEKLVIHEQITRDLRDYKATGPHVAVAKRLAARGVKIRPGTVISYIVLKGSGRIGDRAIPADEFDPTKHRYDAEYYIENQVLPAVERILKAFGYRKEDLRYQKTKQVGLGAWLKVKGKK

Structure (SMILES) | cycles of incorporation [1] | ability to terminate DNA synthesis [2] | incorporation of the blocked nucleotide ([3]; 2 μM compound, 100 nM polymerase, 100 nM primer/template, template with run of 10 adenine bases, 65 C for 10 mins) | block to further incorporation ([3]; chase with the four native, unblocked nucleoside triphosphates)
CCN1/C(=C/C=C/C2=[N+](CCCCCC(=O)NCCSSCCC(=O)NCC#Cc3cn([C@H]4CC(OCN=[N+]=[N-])[C@@H](COP(=O)(O)OP(=O)(O)OP(=O)(O)O)O4)c4nc(N)[nH]c(=O)c34)c3ccc(S(=O)(=O)[O-])cc3C2(C)C)C(C)(C)c2cc(S(=O)(=O)O)ccc21 (some centres unmarked) [compound 24] | Two and two |  |  | 
C=CCO[C@H]1C[C@H](n2cnc3c(N)ncnc32)O[C@@H]1COP(=O)(O)OP(=O)(O)OP(=O)(O)O [3′-allyl dATP, 3′allyl deoxyriboadenosine 5′-triphosphate] |  | terminate DNA synthesis in a single termination assay, out of eight |  | 
CCN1/C(=C/C=C/C2=[N+](CCCCCC(=O)NCCSSCCC(=O)NCC#Cc3cn(C4CC(OCN=[N+]=[N-])C(COP(=O)(O)OP(=O)(O)OP(=O)(O)O)O4)c(=O)[nH]c3=O)c3ccc(S(=O)(=O)[O-])cc3C2(C)C)C(C)(C)c2cc(S(=O)(=O)O)ccc21 (centres unmarked) [compound 6] | six |  | Quantitative incorporation | effective block to further incorporation
